Reference: article PMC8725971, “Polycyclic nitrogen heterocycles as potential thymidine phosphorylase inhibitors: synthesis, biological evaluation, and molecular docking study” (Journal of Enzyme Inhibition and Medicinal Chemistry, 2021)
Values after ≈ are worked out from the molar mass of the structure shown. Where a name gives a salt, the structure may show the parent alone.

Columns and labels:
[1] = biological target: T1, E. coli TP (Escherichia coli, UniProt P07650); experiment: In vitro E. coli thymidine phosphorylase inhibition, spectrophotometric assay at 290 nm; format: biochemical; details: for inhibition at 15 µM: compound at 15 µM (maximum solubility); for inhibition at 25 µM: compound at 25 µM (maximum solubility); for inhibition at 30 µM: read-out: TP inhibition (%) at maximum solubility (30 µM)
T1 construct: purchased Sigma Aldrich T2807-1KU
Protocol: The adopted protocol is a modification of the original method developed by Khan[51]. TP activity and inhibition assays were based on the phosphorolysis of thymidine to thymine, this conversion results in a significant spectrophotometric decrease. At 290 nm and pH 7.4, thymidine has a higher extinction coefficient than thymine (Δε = −480 M^−1 cm^−1). The absorbance at 290 nm was measured every 2 min for 30 min in 96-well plates at 25 °C.
Thymidine was dissolved in buffer (3 mM). […] All experiments were conducted in triplicate.
The method reported by Khan et al.[51] has been adapted to a screening in 96-well plates (200 µL well, UV-Star® 96-well microplate, Greiner). Each well contained 160 µL of 50 mM KH2PO4 buffer (pH 7.4), 0.006 U of E. coli TP (T2807-1KU, Sigma Aldrich), and 20 µL of the tested compound solution. […] The decrease in absorbance due to conversion of thymidine to thymine was followed during 30 min (PowerWave HT Microplate Reader, Biotek) at 25 °C, with one measure every 2 min and a 30 s shaking before each measure.

[2] = Solubility in the incubation medium; details: for solubility: aqueous buffer, kinetic from dmso stock; for Solubility (in words): incubation medium
[3] = compound at 50 µM, 2.5% DMSO, average of three measurements

T1 sequence (P07650 whole entry): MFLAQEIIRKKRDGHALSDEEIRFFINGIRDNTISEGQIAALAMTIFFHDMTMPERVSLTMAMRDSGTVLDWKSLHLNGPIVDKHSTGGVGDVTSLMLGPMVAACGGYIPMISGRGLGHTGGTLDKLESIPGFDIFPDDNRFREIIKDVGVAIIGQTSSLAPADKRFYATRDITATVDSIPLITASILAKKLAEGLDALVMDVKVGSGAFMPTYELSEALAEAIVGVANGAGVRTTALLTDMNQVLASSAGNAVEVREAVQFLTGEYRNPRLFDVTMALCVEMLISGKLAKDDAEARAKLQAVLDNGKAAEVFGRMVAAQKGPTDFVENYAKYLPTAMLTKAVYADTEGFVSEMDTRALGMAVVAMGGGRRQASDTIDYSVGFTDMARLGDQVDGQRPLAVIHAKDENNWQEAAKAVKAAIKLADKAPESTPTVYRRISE

Compound | melting point | inhibition at 50 µM [1, 3] [%] | solubility [2] [µM] | other results
2-[4-(2,4-Dioxo-5-methyl-3,4-dihydropyrimidine-1(2H)-yl)hexyl]-6,7-methylenedioxy-2H-pyrrolo[3,4-b]quinoline-1,3-dione [Compound 13b] |  |  |  | TP inhibition (%) at 50 µM [1, 3]: 0% at 50 µM
CN(C)CCCN1C(=O)c2cc3c(=O)[nH]c(=O)[nH]c3nc2C1=O (as salt: hydrochloride) [Compound 28h, 7-(3-(Dimethylamino)propyl)-1H-pyrrolo[3′,4′:5,6]pyrido [2,3-d]pyrimidine-2,4,6,8 (3H,7H)-tetraone, hydrochloride] | 309 to 311 °C |  |  | 
Cc1ccc2nc3[nH]c(=O)[nH]c(=O)c3cc2c1 [Compound 2a] |  | 0 |  | 
Cc1ccc2cc3c(=O)[nH]c(=O)[nH]c3nc2c1 [Compound 2b] |  | 0 |  | 
Cc1cccc2cc3c(=O)[nH]c(=O)[nH]c3nc12 [Compound 2c] |  | 14 |  | 
O=c1[nH]c(=O)c2cc3ccc(Oc4ccccc4)cc3nc2[nH]1 [Compound 2e, 8-Phenoxypyrimido[4,5-b]quinoline-2,4(1H,3H)-dione] | 334 to 336 °C (dec.) | 30 | 50 (≈ 15.3 µg/mL) | 
O=c1[nH]c(=O)c2cc3ccc(OCc4ccccc4)cc3nc2[nH]1 [Compound 2f] |  | 0 | 50 (≈ 16 µg/mL) | 
COc1cc2nc3[nH]c(=O)[nH]c(=O)c3cc2c(OC)c1OC [Compound 2h] |  |  | 15 (≈ 4.55 µg/mL) | inhibition at 15 µM ([1]; 2.5% DMSO): 0%; Solubility (in words) [2]: sparingly soluble
O=c1[nH]c(=O)c2cc3ccc(Cc4ccccc4)cc3nc2[nH]1 [Compound 2i, 8-Benzylpyrimido[4,5-b]quinoline-2,4(1H,3H)-dione] | 297 to 299 °C (dec.) | 30 | 50 (≈ 15.2 µg/mL) | 
O=c1[nH]c(=O)c2cc3ccc(Cl)cc3nc2[nH]1 [Compound 2j] |  | 0 | 50 (≈ 12.4 µg/mL) | 
O=c1[nH]c(=O)c2cc3ccc(C(F)(F)F)cc3nc2[nH]1 [Compound 2k] |  | 0 |  | 
O=c1[nH]c(=O)c2cc3cc(Cl)c(Cl)cc3nc2[nH]1 [Compound 2l, 7,8-Dichloropyrimido[4,5-b]quinoline-2,4(1H,3H)-dione] | > 360 °C | 71 | > 50 | IC50 ([1]; 300 µM thymidine, pH 7.4, 25 °C): 42 µM
O=c1[nH]c(=O)c2cc3c(ccc4ccccc43)nc2[nH]1 [Compound 2m] |  | 29 |  | 
O=c1[nH]c(=O)c2cc3ccc4ccccc4c3nc2[nH]1 [Compound 2n, Benzo[h]pyrimido[4,5-b]quinoline-8,10(9H,11H)-dione)] | 326 to 328 °C |  | 15 (≈ 3.95 µg/mL) | inhibition at 15 µM ([1]; 2.5% DMSO): 0%; Solubility (in words) [2]: less soluble
O=c1[nH]c(=O)c2cc3ccc4cc5ccccc5cc4c3nc2[nH]1 [Compound 2o, Naphto[2,3-h]pyrimido[4,5-b]quinoline-2,4(1H,3H)-dione] | > 360 °C |  | 25 (≈ 7.83 µg/mL) | inhibition at 25 µM ([1]; 2.5% DMSO): 0%; Solubility (in words) [2]: less soluble
Cc1c2cc3c(cc2nc2[nH]c(=O)[nH]c(=O)c12)OCO3 [Compound 2q] |  | 0 |  | 

Compound | melting point | inhibition at 50 µM [1, 3] [%] | solubility [2] [µM] | other results
COc1cc(-c2c3cc4c(cc3nc3[nH]c(=O)[nH]c(=O)c23)OCO4)cc(OC)c1OC [Compound 2r] |  |  | 25 (≈ 10.6 µg/mL) | inhibition at 25 µM ([1]; 2.5% DMSO): 0%
CN(C)c1c2cc3c(cc2nc2[nH]c(=O)[nH]c(=O)c12)OCO3 [Compound 2s, 5-Dimethylamino-7,8-methylenedioxypyrimido[4,5-b]quinoline-2,4(1H,3H)-dione] | 348 °C |  | 15 (≈ 4.5 µg/mL) | inhibition at 15 µM ([1]; 2.5% DMSO): 0%
O=c1[nH]c(=O)c2cc[nH]c2[nH]1 [Compound 7-DX, 7-Deazaxanthine, reference compound] |  | 60 |  | 
Cc1cn(CCCCN2C(=O)c3cc4cc5c(cc4nc3C2=O)OCO5)c(=O)[nH]c1=O [Compound 13a, 2-[4-(2,4-Dioxo-5-methyl-3,4-dihydropyrimidine-1(2H)-yl)butyl]-6,7-methylenedioxy-2H-pyrrolo[3,4-b]quinoline-1,3-dione] | 302 °C | 25 |  | 
O=C1c2cc3cc4c(cc3nc2C(=O)N1CCCCn1cc(Br)c(=O)[nH]c1=O)OCO4 [Compound 16a, 2-[4-(5-Bromo-2,4-dioxo-3,4-dihydropyrimidine-1(2H)-yl)butyl]-6,7-methylenedioxy-2H-pyrrolo[3,4-b]quinoline-1,3-dione] | 276 °C |  | 25 (≈ 12.2 µg/mL) | inhibition at 25 µM ([1]; 2.5% DMSO): 30%; Solubility (in words) [2]: less soluble
CCC(CCCn1c(=O)c(Br)cn(C(CC)CCCN2C(=O)c3cc4cc5c(cc4nc3C2=O)OCO5)c1=O)n1cc(Br)c(=O)[nH]c1=O (stereo not drawn) [Compound 17, 2-[4-[5-Bromo-3-[4-(5-bromo-2,4-dioxo-3,4-dihydropyrimidine-1(2H)-yl)hexyl]-2,4-dioxo-3,4-dihydropyrimidine-1(2H)-yl]hexyl]-6,7-méthylènedioxy-2H-pyrrolo[3,4-b]quinoline-1,3-dione] | 144 to 148 °C |  |  | 
O=C1c2cc3cc4c(cc3nc2C(=O)N1Cc1[nH]c(=O)[nH]c(=O)c1Cl)OCO4 [Compound 23a, 2-[(5-Chloro-2,6-dioxo-1,2,3,6-tetrahydropyrimidin-4-yl)methyl]-6,7-methylenedioxy-1H-pyrrolo[3,4-b]quinoline-1,3(2H)-dione] | 352 to 354 °C (dec.) | 0 |  | 
O=C1c2cc3cc4c(cc3nc2C(=O)N1Cc1[nH]c(=O)[nH]c(=O)c1I)OCO4 [Compound 23c, 2-[(5-Iodo-2,6-dioxo-1,2,3,6-tetrahydropyrimidin-4-yl)methyl]-6,7-methylenedioxy-1H-pyrrolo[3,4-b]quinoline-1,3(2H)-dione] | 365 to 367 °C (dec.) | 0 |  | 
O=C1c2cc3cc4c(cc3nc2C(=O)N1Cc1ccccc1)OCO4 [Compound 24, 6,7-Methylenedioxy-2-benzylpyrrolo[3,4-b]quinoline-1,3-dione] | 191 to 193 °C | 20 |  | 
O=C1NC(=O)c2nc3[nH]c(=O)[nH]c(=O)c3cc21 [Compound 27] |  | 0 |  | 
COc1ccc(CN2C(=O)c3cc4c(=O)[nH]c(=O)[nH]c4nc3C2=O)c(OC)c1 [Compound 28b] |  | 0 |  | 
O=C1c2cc3c(=O)[nH]c(=O)[nH]c3nc2C(=O)N1Cc1ccc(Cl)cc1Cl [Compound 28d] |  |  | 30 (≈ 11.7 µg/mL) | inhibition at 30 µM [1]: 0%
O=C1c2cc3c(=O)[nH]c(=O)[nH]c3nc2C(=O)N1CCc1ccccc1 [Compound 28e, 7-Phenylethyl-1H-pyrrolo[3′,4′:5,6]pyrido[2,3-d]pyrimidine-2,4,6,8(3H,7H)-tetraone] | 359 to 361 °C | 0 |  | 
O=C1c2cc3c(=O)[nH]c(=O)[nH]c3nc2C(=O)N1Cc1cccnc1 [Compound 28f, 7-(Pyridin-3-ylmethyl)-1H-pyrrolo[3′,4′:5,6]pyrido[2,3-d]pyrimidine-2,4,6,8(3H,7H)-tetraone] | > 360 °C | 0 |  | 
O=C1c2cc3c(=O)[nH]c(=O)[nH]c3nc2C(=O)N1CC1CCCCC1 [Compound 28g] |  |  | 30 (≈ 9.85 µg/mL) | inhibition at 30 µM [1]: 0%
CN(C)CCCN1C(=O)c2cc3c(=O)[nH]c(=O)[nH]c3nc2C1=O [Compound 28h, 7-(3-(Dimethylamino)propyl)-1H-pyrrolo[3′,4′:5,6]pyrido [2,3-d]pyrimidine-2,4,6,8 (3H,7H)-tetraone, hydrochloride] |  | 0 |  | 
